The structures appear in SMILES notation. Converted amounts (≈) assume the structure as drawn. The source made the active and inactive calls. The rule behind the calls is not given here.

The values that follow come from ChEMBL document CHEMBL4219190, “Studies on synthesis of novel pyrido[2,3-d]pyrimidine derivatives, evaluation of their antimicrobial activity and molecular docking” (Bioorg Med Chem Lett, 2018).

Assay [1] deals with Raoultella planticola. Description: Antibacterial activity against Klebsiella planticola MTCC 530 after 24 hrs by well diffusion method. It is filed as functional. (Agar diffusion results depend on both activity and mobility in agar.)
Assay [2] has as its system Bacillus subtilis. Description: Antibacterial activity against Bacillus subtilis MTCC 121 after 24 hrs by well diffusion method. In kind it is functional.
Assay [3] concerns Escherichia coli. Description: Antibacterial activity against Escherichia coli MTCC 739 after 24 hrs by well diffusion method. In kind it is functional.
The subject of assay [4] is Pseudomonas aeruginosa. Briefly: Antibacterial activity against Pseudomonas aeruginosa MTCC 2453 after 24 hrs by well diffusion method. It is filed as functional.
For assay [5], the system named is Staphylococcus aureus. Description: Antibacterial activity against Staphylococcus aureus MLS16 MTCC 2940 after 24 hrs by well diffusion method. In kind it is functional.
Assay [6] has as its system Staphylococcus aureus. Description: Antibacterial activity against Staphylococcus aureus MTCC 96 after 24 hrs by well diffusion method. It is filed as functional.
Assay [7] relates to Micrococcus luteus. Description: Antibacterial activity against Micrococcus luteus MTCC 2470 after 24 hrs by well diffusion method. In kind it is functional.
Assay [8] deals with Raoultella planticola. Description: Bactericidal activity against Klebsiella planticola MTCC 530 incubated for 24 hrs followed by transfer of microbial suspension to Mueller Hinton agar plates and measured after 24 hrs post transfer. It is filed as functional.
The test system of assay [9] is Bacillus subtilis. Description: Antibiofilm activity against Bacillus subtilis MTCC 121 after 24 hrs by crystal violet staining-based assay. It is filed as functional, organism-based.
Assay [10] has as its system Staphylococcus aureus. Briefly: Antibiofilm activity against Staphylococcus aureus MTCC 96 after 24 hrs by crystal violet staining-based assay. In kind it is functional, organism-based.
For assay [11], the system named is Staphylococcus aureus. Description: Bactericidal activity against Staphylococcus aureus MTCC 96 incubated for 24 hrs followed by transfer of microbial suspension to Mueller Hinton agar plates and measured after 24 hrs post transfer. In kind it is functional.
In assay [12] the test system is Pseudomonas aeruginosa. Briefly: Antibiofilm activity against Pseudomonas aeruginosa MTCC 2453 after 24 hrs by crystal violet staining-based assay. It is filed as functional, organism-based.
For assay [13], the system named is Staphylococcus aureus. Description: Antibiofilm activity against Staphylococcus aureus MLS16 MTCC 2940 after 24 hrs by crystal violet staining-based assay. In kind it is functional, organism-based.
In assay [14] the test system is Bacillus subtilis. Briefly: Bactericidal activity against Bacillus subtilis MTCC 121 incubated for 24 hrs followed by transfer of microbial suspension to Mueller Hinton agar plates and measured after 24 hrs post transfer. It is filed as functional.
In assay [15] the test system is Pseudomonas aeruginosa. Briefly: Bactericidal activity against Pseudomonas aeruginosa MTCC 2453 incubated for 24 hrs followed by transfer of microbial suspension to Mueller Hinton agar plates and measured after 24 hrs post transfer. It is filed as functional.
The test system of assay [16] is Staphylococcus aureus. Briefly: Bactericidal activity against Staphylococcus aureus MLS16 MTCC 2940 incubated for 24 hrs followed by transfer of microbial suspension to Mueller Hinton agar plates and measured after 24 hrs post transfer. In kind it is functional.
Assay [17] has as its system Micrococcus luteus. Description: Bactericidal activity against Micrococcus luteus MTCC 2470 incubated for 24 hrs followed by transfer of microbial suspension to Mueller Hinton agar plates and measured after 24 hrs post transfer. It is filed as functional.
Assay [18] relates to Escherichia coli. Briefly: Bactericidal activity against Escherichia coli MTCC 739 incubated for 24 hrs followed by transfer of microbial suspension to Mueller Hinton agar plates and measured after 24 hrs post transfer. In kind it is functional.
Assay [19] concerns Raoultella planticola. Description: Antibiofilm activity against Klebsiella planticola MTCC 530 after 24 hrs by crystal violet staining-based assay. In kind it is functional, organism-based.
[20] abbreviates: Staphylococcus aureus, MTCC 96, 24 h, read-out: IC50.
[21] abbreviates: Klebsiella planticola, MTCC 530, 24 h, read-out: IC50.

A word on the MIC: it is the lowest concentration found to suppress growth. As for `COc1ccc(-c2nc(C(=O)NCc3ccccc3)nc3nc(-c4ccccc4)cc(C(F)(F)F)c23)cc1`, the MIC entry in the assay with Raoultella planticola [1], in the assay on Bacillus subtilis [2], in the assay with Escherichia coli [3], in the assay with Pseudomonas aeruginosa [4], in the assay with Staphylococcus aureus [5] and with Staphylococcus aureus [6] was “inactive” in each case. Besides, the MIC entry with Micrococcus luteus [7] is “inactive”.
As to `COc1ccc(-c2nc(C(=O)N3CCN(CCO)CC3)nc3nc(-c4ccccc4)cc(C(F)(F)F)c23)cc1`, the MIC result with Raoultella planticola [1], in the assay on Bacillus subtilis [2], in the assay with Escherichia coli [3], in the assay with Pseudomonas aeruginosa [4], in the assay on Staphylococcus aureus [5] and in the assay with Staphylococcus aureus [6] was “inactive” in each case. The MIC result with Micrococcus luteus [7] is “inactive”.
For the compound `CCNC(=O)c1nc(-c2ccccc2)c2c(C(F)(F)F)cc(-c3ccccc3)nc2n1`, in the assay on Raoultella planticola [1] (MTCC 530, 24 h), the MIC was determined as 31.2 µg/mL (≈ 73.9 µM). Also, the MIC result with Bacillus subtilis [2], with Escherichia coli [3], in the assay on Pseudomonas aeruginosa [4], in the assay on Staphylococcus aureus [5], with Staphylococcus aureus [6] and with Micrococcus luteus [7] was “inactive” in each case.
Take `COc1ccc(-c2nc(C(=O)NCc3ccco3)nc3nc(-c4ccccc4)cc(C(F)(F)F)c23)cc1`: the MIC entry in the assay on Raoultella planticola [1], in the assay on Bacillus subtilis [2], in the assay with Escherichia coli [3], with Pseudomonas aeruginosa [4], with Staphylococcus aureus [5] and with Staphylococcus aureus [6] was “inactive” in each case. Also, the MIC result in the assay on Micrococcus luteus [7] is “inactive”.
In the case of `COc1ccc(-c2nc(C(=O)NCCO)nc3nc(-c4ccccc4)cc(C(F)(F)F)c23)cc1`, the MIC entry with Raoultella planticola [1], with Bacillus subtilis [2], in the assay on Escherichia coli [3], with Pseudomonas aeruginosa [4], in the assay on Staphylococcus aureus [5] and with Staphylococcus aureus [6] was “inactive” in each case. Moreover, the MIC result with Micrococcus luteus [7] was “inactive”.
In general, MBC refers to the lowest tested concentration that kills the bacteria rather than only halting them. The term IC50 denotes the concentration needed to halve the response being measured. Turning to `COc1ccc(-c2nc(C(=O)NC3CCCCC3)nc3nc(-c4ccccc4)cc(C(F)(F)F)c23)cc1`, the MBC entry in the assay on Raoultella planticola [8], in the assay with Bacillus subtilis [14], in the assay on Pseudomonas aeruginosa [15], with Staphylococcus aureus [16], in the assay with Micrococcus luteus [17] and in the assay on Escherichia coli [18] was “inactive” in each case. Besides, the IC50 result was “Not Active” in the assay with Bacillus subtilis [9]; 2.7 µg/mL (≈ 5.33 µM) with Staphylococcus aureus [10] (setting [20]); “Not Active” with Pseudomonas aeruginosa [12]; “Not Active” with Staphylococcus aureus [13]; “Not Active” with Raoultella planticola [19]. Moreover, the MIC entry in the assay on Raoultella planticola [1], in the assay on Bacillus subtilis [2], in the assay on Escherichia coli [3], in the assay with Pseudomonas aeruginosa [4], with Staphylococcus aureus [5] and in the assay on Micrococcus luteus [7] was “inactive” throughout. Moreover, the minimal bactericidal concentration (MBC) in the assay on Staphylococcus aureus [11] (MTCC 96, 24 h) came to 7.8 µg/mL (≈ 15.4 µM). Also, the MIC against Staphylococcus aureus [6] (MTCC 96, 24 h) came to 7.8 µg/mL (≈ 15.4 µM).
Turning to `O=C(NCc1ccco1)c1nc(-c2ccccc2)c2c(C(F)(F)F)cc(-c3ccccc3)nc2n1`, the MBC against Raoultella planticola [8] (MTCC 530, 24 h) was 31.2 µg/mL (≈ 65.8 µM); against Staphylococcus aureus [11] (MTCC 96, 24 h) it was 15.6 µg/mL (≈ 32.9 µM). Besides, the IC50 entry in the assay with Bacillus subtilis [9] is “Not Active”; in the assay on Staphylococcus aureus [10] (setting [20]), 2.7 µg/mL (≈ 5.69 µM); in the assay on Pseudomonas aeruginosa [12], “Not Active”; in the assay with Staphylococcus aureus [13], “Not Active”; in the assay with Raoultella planticola [19] (setting [21]) it was 5.4 µg/mL (≈ 11.4 µM). Also, the MIC with Raoultella planticola [1] (MTCC 530, 24 h) was 15.6 µg/mL (≈ 32.9 µM); against Staphylococcus aureus [6] (MTCC 96, 24 h) it was 7.8 µg/mL (≈ 16.4 µM). The MIC entry with Bacillus subtilis [2], with Escherichia coli [3], in the assay with Pseudomonas aeruginosa [4], in the assay on Staphylococcus aureus [5] and with Micrococcus luteus [7] was “inactive” each time. For the same compound, the MBC result in the assay with Bacillus subtilis [14], with Pseudomonas aeruginosa [15], in the assay with Staphylococcus aureus [16], with Micrococcus luteus [17] and with Escherichia coli [18] was “inactive” throughout.
Turning to `O=C(O)c1cn(C2CC2)c2cc(N3CCNCC3)c(F)cc2c1=O` [CIPROFLOXACIN], the MBC in the assay with Raoultella planticola [8] (MTCC 530, 24 h) came to 0.58 µg/mL (≈ 1.75 µM); against Staphylococcus aureus [11] (MTCC 96, 24 h), 0.58 µg/mL (≈ 1.75 µM); against Bacillus subtilis [14] (MTCC 121, 24 h), 0.58 µg/mL (≈ 1.75 µM); against Pseudomonas aeruginosa [15] (MTCC 2453, 24 h), 1.17 µg/mL (≈ 3.53 µM); with Staphylococcus aureus [16] (MLS16 MTCC 2940, 24 h) it was 1.17 µg/mL (≈ 3.53 µM); in the assay with Micrococcus luteus [17] (MTCC 2470, 24 h) it was 1.17 µg/mL (≈ 3.53 µM). Moreover, the MBC with Escherichia coli [18] (MTCC 739, 24 h) turned out to be 0.58 µg/mL (≈ 1.75 µM). Besides, the IC50 in the assay on Bacillus subtilis [9] (Bacillus subtilis, MTCC 121, 24 h, read-out: IC50) came to 0.23 µg/mL (≈ 0.694 µM); in the assay with Staphylococcus aureus [10] (setting [20]), 0.21 µg/mL (≈ 0.634 µM); in the assay with Pseudomonas aeruginosa [12] (Pseudomonas aeruginosa, MTCC 2453, 24 h, read-out: IC50), 0.32 µg/mL (≈ 0.966 µM); with Staphylococcus aureus [13] (Staphylococcus aureus, MLS16 MTCC 2940, 24 h, read-out: IC50) it was 0.24 µg/mL (≈ 0.724 µM); in the assay with Raoultella planticola [19] (setting [21]), 0.29 µg/mL (≈ 0.875 µM). Further, the MIC was 0.9 µg/mL (≈ 2.72 µM) with Raoultella planticola [1] (MTCC 530, 24 h); 0.9 µg/mL (≈ 2.72 µM) against Bacillus subtilis [2] (MTCC 121, 24 h); 0.9 µg/mL (≈ 2.72 µM) with Escherichia coli [3] (MTCC 739, 24 h); 0.9 µg/mL (≈ 2.72 µM) against Pseudomonas aeruginosa [4] (MTCC 2453, 24 h); 0.9 µg/mL (≈ 2.72 µM) with Staphylococcus aureus [5] (MLS16 MTCC 2940, 24 h); 0.9 µg/mL (≈ 2.72 µM) against Staphylococcus aureus [6] (MTCC 96, 24 h). Moreover, the MIC against Micrococcus luteus [7] (MTCC 2470, 24 h) was 0.9 µg/mL (≈ 2.72 µM).
As to `CCCNC(=O)c1nc(-c2ccc(OC)cc2)c2c(C(F)(F)F)cc(-c3ccccc3)nc2n1`, the MIC result in the assay on Raoultella planticola [1], in the assay with Bacillus subtilis [2], with Escherichia coli [3], with Pseudomonas aeruginosa [4], with Staphylococcus aureus [5] and in the assay with Staphylococcus aureus [6] was “inactive” in each case. Further, the MIC entry in the assay with Micrococcus luteus [7] was “inactive”.
Consider `COc1ccc(-c2nc(C(=O)N3CCCC3)nc3nc(-c4ccccc4)cc(C(F)(F)F)c23)cc1`, for which the minimum bactericidal concentration (MBC) with Raoultella planticola [8] (MTCC 530, 24 h) stood at 15.6 µg/mL (≈ 32.6 µM). The IC50 entry with Bacillus subtilis [9] was “Not Active”; in the assay with Staphylococcus aureus [10], “Not Active”; with Pseudomonas aeruginosa [12] it was “Not Active”; in the assay on Staphylococcus aureus [13] it was “Not Active”; with Raoultella planticola [19] (setting [21]) it was 10.8 µg/mL (≈ 22.6 µM). The compound further returned a minimal inhibitory concentration (MIC) against Raoultella planticola [1] (MTCC 530, 24 h) of 15.6 µg/mL (≈ 32.6 µM). For the same compound, the MIC result with Bacillus subtilis [2], with Escherichia coli [3], with Pseudomonas aeruginosa [4], in the assay with Staphylococcus aureus [5], in the assay with Staphylococcus aureus [6] and in the assay with Micrococcus luteus [7] was “inactive” throughout. Moreover, the MBC result in the assay on Staphylococcus aureus [11], in the assay with Bacillus subtilis [14], with Pseudomonas aeruginosa [15], in the assay on Staphylococcus aureus [16], with Micrococcus luteus [17] and in the assay with Escherichia coli [18] was “inactive” each time.
